From patent US9566334B2, “Combinations of a PI3K/AKT inhibitor compound with an HER3/EGFR inhibitor compound and use thereof in the treatment of a hyperproliferative disorder” (THE GENERAL HOSPITAL CORPORATION, priority 2012, dated 2017)

Tested on: TNBC patients
Test: Neoadjuvant trial of panitumumab with standard chemotherapy (pCR, EGFR and HER3 IHC)
Type: in vivo, human
Method: Patient samples: Tumor tissue was fixed in 10%-buffered formalin for 48 h and further embedded in paraffin. Four-micron sections were deparaffinized in xylene and hydrated in graded alcohols. For EGFR detection, the antigen was retrieved by protease treatment (8 min at 37° C.) and the sections further incubated at 37° C. for 1 h with pre-diluted, ready-to-use mouse monoclonal anti-EGFR (clone 3C6, Ventana, Tucson, Ariz.). The antigen-antibody reaction was visualized by UltraView DAB reveal system in a Benchmark XT automated IHC stainer (all from Ventana). For HER3, the antigen retrieval was performed by heating the sections at 97° C. for 20 min in EnVision® Target Retrieval Solution High pH (Dako) in PT-Link apparatus (Dako). The tissues were then incubated at 37° C. for 2 h with mouse monoclonal anti-HER3 (clone DAK-H3-IC, Dako, Glostrup, Denmak) diluted at 1:50. […] For each patient the pre-treatment and the post-treatment tumor sample were run together. IHC staining was interpreted by an expert pathologist who was blind to patient information. Both EGFR and HER3 expressions were quantified using an arbitrary scale having 0, 0.5, 1, 1.5, 2, 2.5 and 3 as measures of increasing staining intensity. EGFR and HER3 histoscores were defined as a sum of products obtained by multiplying the staining intensity with the percentage of stained cells.
FFPE specimens for IHC analyses of EGFR and HER3 expression were obtained from the institutions participating in two French multicenter pilot phase II neoadjuvant trials which tested the efficacy of an anti-EGFR antibody combined to chemotherapy in TNBC stage II-IIIA pts. One trial regimen consisted of 8 cycles, administered each 3 weeks. First 4 cycles contained 9 mg/kg of panitumumab combined with 500 mg/m2 of each 5-fluorouracil and cyclophosphamide plus 100 mg/m2 of epirubicin. Last 4 cycles had panitumumab with 100 mg/m2 docetaxel instead of 3 cytotoxics previously mentioned. […] All patients underwent surgery at completion of treatment. Pathologic complete response (pCR) was the primary endpoint with clinical response and toxicity as secondary endpoints. […] Tumor tissue samples were systematically collected before and at the end of the neoadjuvant treatment and collection was centralized at the Jean Perrin Comprehensive Cancer Center where molecular and pathological analyses were performed. pCR was evaluated using Chevallier's (Chevallier et al., American Journal of Clinical Oncology 16, 223 (1993)) and Sataloff's (Sataloff et al., Journal of the American College of Surgeons 180, 297 (1995)) classifications.

[1] = pre-treatment EGFR histoscore more than 70
[2] = pre-treatment EGFR histoscore ≦70

panitumumab: anti-EGFR antibody, epidermal growth factor receptor antagonist
residual disease at the time of surgery, rate (40 patients): 52.5% | pathological complete response (pCR) rate (40 patients, panitumumab with 4 standard cytotoxic agents, 24 weeks): 47.5% | increase in pCR compared to TNBC patients treated only with cytotoxics-based neoadjuvant chemotherapy (comparison with Liedtke et al. 2008): two-fold increase | patients with residual disease at the time of surgery (of 40 patients): 21 | patients achieving pathological complete response (pCR) (of 40 patients, panitumumab with 4 standard cytotoxic agents, 24 weeks): 19 | non-pCR patients with higher HER3 expression in residual lesions versus pre-treatment (IHC) (p equals 0.010): 7 out of 13 | non-pCR patients with decreased EGFR levels in residual tumors versus baseline (IHC) (p equals 0.07): nine out of 21 | pCR rate [1]: 58% | patients with pCR [1]: 15 out of 26 | complete tumor regression rate [2]: 28% | patients with complete tumor regression [2]: 4 out of 14
